Reference: article PMC10041525, “New Dual Inhibitors of Bacterial Topoisomerases with Broad-Spectrum Antibacterial Activity and In Vivo Efficacy against Vancomycin-Intermediate Staphylococcus aureus” (Journal of Medicinal Chemistry, 2023)
In brackets after ≈: the same amount, converted by molar mass. Several values for one entry are separate records, joined by “and”; a condition that tells them apart may be missing. Equal values may be shown once. Read-outs that look alike come from different tables or passages of the source.

Experiments:
[1] = tested on: Neisseria gonorrhoeae (n = 12); assay: MIC broth microdilution at IHMA Europe; type: cell-based; conditions: for MIC: Neisseria gonorrhoeae, read-out: MIC
[2] = tested on: Haemophilus influenzae (n = 14); assay: MIC broth microdilution at IHMA Europe; type: cell-based, H. influenzae; conditions: for MIC: Haemophilus influenzae, read-out: MIC
E. faecium (n = 13) = assay: MIC broth microdilution at IHMA Europe; type: cell-based; conditions: for MIC: Enterococcus faecium, read-out: MIC
S. pneumoniae (n = 12) = assay: MIC broth microdilution at IHMA Europe; type: cell-based; conditions: for MIC: Streptococcus pneumoniae, read-out: MIC
E. faecalis ATCC 29212 = assay: IHMA QC MIC; type: cell-based
Excerpt: Supplement jm2c01905_si_004.xlsx, sheet "QC" | column: MIC [µg/mL]

Cc1[nH]c(C(=O)Nc2nc3c(N4[C@@H]5CC[C@H]4COC5)cc(C(=O)O)cc3s2)c(Cl)c1Cl [7h, 4-((1R,5S)-3-Oxa-8-azabicyclo[3.2.1]octan-8-yl)-2-(3,4-dichloro-5-methyl-1H-pyrrole-2-carboxamido)benzo[d]thiazole-6-carboxylic Acid]
No. of isolates at MIC [1]: 8 and 4 | Cumulative % at MIC ([1]; MIC 0.06 µg/mL): 100.0% | Cumulative % at MIC ([1]; MIC ≤0.03 µg/mL): 66.7% | MIC ([1]; isolate IHMA 1123853): ≤ 0.03 µg/mL | MIC ([1]; isolate IHMA 1130935): ≤ 0.03 µg/mL | MIC ([1]; isolate IHMA 1130989): 0.06 µg/mL (≈ 0.125 µM) | MIC ([1]; isolate IHMA 1130991): ≤ 0.03 µg/mL | MIC ([1]; isolate IHMA 1137292): 0.06 µg/mL (≈ 0.125 µM) | MIC ([1]; isolate IHMA 1145734): ≤ 0.03 µg/mL | MIC ([1]; isolate IHMA 1145735): ≤ 0.03 µg/mL | MIC ([1]; isolate IHMA 1165897): ≤ 0.03 µg/mL | MIC ([1]; isolate IHMA 1194748): ≤ 0.03 µg/mL | MIC ([1]; isolate IHMA 1194750): ≤ 0.03 µg/mL | MIC ([1]; isolate IHMA 1546199): 0.06 µg/mL (≈ 0.125 µM) | MIC ([1]; isolate IHMA 1546215): 0.06 µg/mL (≈ 0.125 µM) | MIC, all isolates ([1]; n = 12): ≤ 0.06 µg/mL | No. of isolates at MIC [2]: 5 and 4 | MIC ([2]; H. influenzae IHMA N° 1227715): 0.12 µg/mL (≈ 0.249 µM) | MIC ([2]; H. influenzae IHMA N° 1241620): 0.12 µg/mL (≈ 0.249 µM) | MIC ([2]; H. influenzae IHMA N° 1244149): 0.5 µg/mL (≈ 1.04 µM) | MIC ([2]; H. influenzae IHMA N° 1249803): 0.12 µg/mL (≈ 0.249 µM) | MIC ([2]; H. influenzae IHMA N° 1254355): 0.25 µg/mL (≈ 0.519 µM) | MIC ([2]; H. influenzae IHMA N° 1258580): 0.5 µg/mL (≈ 1.04 µM) | MIC ([2]; H. influenzae IHMA N° 1262734): 0.25 µg/mL (≈ 0.519 µM) | MIC ([2]; H. influenzae IHMA N° 1272723): 0.12 µg/mL (≈ 0.249 µM) | MIC ([2]; H. influenzae IHMA N° 1286846): 0.5 µg/mL (≈ 1.04 µM) | MIC ([2]; H. influenzae IHMA N° 1337530): 0.12 µg/mL (≈ 0.249 µM) | MIC ([2]; H. influenzae IHMA N° 1440085): 0.5 µg/mL (≈ 1.04 µM) | MIC ([2]; H. influenzae IHMA N° 1479509): 1 µg/mL (≈ 2.08 µM) | MIC ([2]; H. influenzae IHMA N° 1952952): 0.25 µg/mL (≈ 0.519 µM) | MIC ([2]; H. influenzae IHMA N° 2047461): 0.25 µg/mL (≈ 0.519 µM) | Cumulative % at MIC ([2]; MIC […] µg/mL): 92.9% | Cumulative % at MIC ([2]; MIC […] µg/mL): 100.0% | No. of isolates at MIC ([2]; MIC […] µg/mL): 1 | MIC, all isolates ([2]; n = 14): ≤ 1 µg/mL | MIC (E. faecium (n = 13); E. faecium IHMA N° 1764866): ≤ 0.03 µg/mL | MIC (E. faecium (n = 13); E. faecium IHMA N° 1765436): 0.06 µg/mL (≈ 0.125 µM) | MIC (E. faecium (n = 13); E. faecium IHMA N° 1765746): ≤ 0.03 µg/mL | MIC (E. faecium (n = 13); E. faecium IHMA N° 1893573): ≤ 0.03 µg/mL | MIC (E. faecium (n = 13); E. faecium IHMA N° 1893846): 0.12 µg/mL (≈ 0.249 µM) | MIC (E. faecium (n = 13); E. faecium IHMA N° 1893942): 0.06 µg/mL (≈ 0.125 µM) | MIC (E. faecium (n = 13); E. faecium IHMA N° 1894055): 0.06 µg/mL (≈ 0.125 µM) | MIC (E. faecium (n = 13); E. faecium IHMA N° 1897027): 0.06 µg/mL (≈ 0.125 µM) | MIC (E. faecium (n = 13); E. faecium IHMA N° 1897101): ≤ 0.03 µg/mL | MIC (E. faecium (n = 13); E. faecium IHMA N° 1904592): ≤ 0.03 µg/mL | MIC (E. faecium (n = 13); E. faecium IHMA N° 2075051): 0.06 µg/mL (≈ 0.125 µM) | MIC (E. faecium (n = 13); E. faecium IHMA N° 2077718): ≤ 0.03 µg/mL | MIC (E. faecium (n = 13); E. faecium IHMA N° 2083787): ≤ 0.03 µg/mL | Cumulative % at MIC (E. faecium (n = 13); MIC 0.06 µg/mL): 92.3% | Cumulative % at MIC (E. faecium (n = 13); MIC […]): 100.0% | Cumulative % at MIC (E. faecium (n = 13); MIC ≤0.03 µg/mL): 53.8% | MIC, all isolates (E. faecium (n = 13); n = 13): ≤ 0.12 µg/mL | Cumulative % at MIC (S. pneumoniae (n = 12); MIC 0.06 µg/mL): 16.7% | Cumulative % at MIC (S. pneumoniae (n = 12); MIC […] µg/mL): 100.0% | Cumulative % at MIC (S. pneumoniae (n = 12); MIC […]): 91.7% | MIC (S. pneumoniae (n = 12); S. pneumoniae IHMA N° 1775387): 0.25 µg/mL (≈ 0.519 µM) | MIC (S. pneumoniae (n = 12); S. pneumoniae IHMA N° 1776057): 0.5 µg/mL (≈ 1.04 µM) | MIC (S. pneumoniae (n = 12); S. pneumoniae IHMA N° 1785617): 0.25 µg/mL (≈ 0.519 µM) | MIC (S. pneumoniae (n = 12); S. pneumoniae IHMA N° 1800765): 0.25 µg/mL (≈ 0.519 µM) | MIC (S. pneumoniae (n = 12); S. pneumoniae IHMA N° 1811259): 0.06 µg/mL (≈ 0.125 µM) | MIC (S. pneumoniae (n = 12); S. pneumoniae IHMA N° 1831562): 0.25 µg/mL (≈ 0.519 µM) | MIC (S. pneumoniae (n = 12); S. pneumoniae IHMA N° 1902609): 0.25 µg/mL (≈ 0.519 µM) | MIC (S. pneumoniae (n = 12); S. pneumoniae IHMA N° 1979675): 0.25 µg/mL (≈ 0.519 µM) | MIC (S. pneumoniae (n = 12); S. pneumoniae IHMA N° 1991963): 0.25 µg/mL (≈ 0.519 µM) | MIC (S. pneumoniae (n = 12); S. pneumoniae IHMA N° 2057487): 0.25 µg/mL (≈ 0.519 µM) | MIC (S. pneumoniae (n = 12); S. pneumoniae IHMA N° 2073087): 0.25 µg/mL (≈ 0.519 µM) | MIC (S. pneumoniae (n = 12); S. pneumoniae IHMA N° 2117109): 0.06 µg/mL (≈ 0.125 µM) | MIC, all isolates (S. pneumoniae (n = 12); n = 12): ≤ 0.5 µg/mL | MIC (E. faecalis ATCC 29212; Enterococcus faecalis, ATCC29212): ≤ 0.03 µg/mL | MIC (E. faecalis ATCC 29212; QC strain E. faecalis ATCC 29212, test date 2021-11-26): ≤0,03 µg/mL

O=C(O)c1cn(C2CC2)c2cc(N3CCNCC3)c(F)cc2c1=O [ciprofloxacin]
Cumulative % at MIC ([1]; MIC 0.004 µg/mL): 41.7% | No. of isolates at MIC ([1]; MIC 0.004 µg/mL): 5 | Cumulative % at MIC ([1]; MIC >[…] µg/mL): 100.0% | No. of isolates at MIC ([1]; MIC >[…] µg/mL): 2 | MIC ([1]; isolate IHMA 1123853): > 8 µg/mL | MIC ([1]; isolate IHMA 1130935): 4 µg/mL (≈ 12.1 µM) | MIC ([1]; isolate IHMA 1130989): 4 µg/mL (≈ 12.1 µM) | MIC ([1]; isolate IHMA 1130991): 8 µg/mL (≈ 24.1 µM) | MIC ([1]; isolate IHMA 1137292): > 8 µg/mL | MIC ([1]; isolate IHMA 1145734): 8 µg/mL (≈ 24.1 µM) | MIC ([1]; isolate IHMA 1145735): 4 µg/mL (≈ 12.1 µM) | MIC ([1]; isolate IHMA 1165897): 0.004 µg/mL (≈ 0.0121 µM) | MIC ([1]; isolate IHMA 1194748): 0.004 µg/mL (≈ 0.0121 µM) | MIC ([1]; isolate IHMA 1194750): 0.004 µg/mL (≈ 0.0121 µM) | MIC ([1]; isolate IHMA 1546199): 0.004 µg/mL (≈ 0.0121 µM) | MIC ([1]; isolate IHMA 1546215): 0.004 µg/mL (≈ 0.0121 µM)
